Results as given in ChEMBL document CHEMBL1152085, “Novel 3-deoxy-3-descladinosyl-6-O-methyl erythromycin a analogues. Synthesis and in vitro activity” (1997).
≈ marks a conversion by molar mass, not a printed value.

Experiments:
Type in all cases: functional
Staphylococcus aureus [1] = assay: Tested in vitro for minimum inhibitory concentration to produce antibacterial activity against Staphylococcus aureus A-5278 in presence of erythromycin A
Staphylococcus aureus [2] = assay: Tested in vitro for minimum inhibitory concentration to produce antibacterial activity against Staphylococcus aureus CMX 553
Staphylococcus aureus [3] = assay: Tested in vitro for minimum inhibitory concentration to produce antibacterial activity against Staphylococcus aureus ATCC 6538P
Streptococcus agalactiae [4] = assay: Tested in vitro for minimum inhibitory concentration to produce antibacterial activity against Streptococcus agalactiae CMX 508 in presence of erythromycin A
Escherichia coli [5] = assay: Tested in vitro for minimum inhibitory concentration to produce antibacterial activity against Escherichia coli JUHL
Staphylococcus aureus [6] = assay: Tested in vitro for minimum inhibitory concentration to produce antibacterial activity against Staphylococcus aureus 1775
Escherichia coli [7] = assay: Tested in vitro for minimum inhibitory concentration to produce antibacterial activity against Escherichia coli SS in presence of erythromycin A
Staphylococcus aureus [8] = assay: Tested in vitro for minimum inhibitory concentration to produce antibacterial activity against Staphylococcus aureus CMX 642A
Streptococcus pyogenes [9] = assay: Tested in vitro for minimum inhibitory concentration to produce antibacterial activity against Streptococcus pyogenes PIU 2548
Staphylococcus aureus [10] = assay: Tested in vitro for minimum inhibitory concentration to produce antibacterial activity against Staphylococcus aureus CMX 553 in presence of erythromycin A
Enterococcus faecium [11] = assay: Tested in vitro for minimum inhibitory concentration to produce antibacterial activity against Enterococcus faecium ATCC 8043 in presence of erythromycin A
Streptococcus equinus [12] = assay: Tested in vitro for minimum inhibitory concentration to produce antibacterial activity against Streptococcus bovis A-5169
Streptococcus pyogenes [13] = assay: Tested in vitro for minimum inhibitory concentration to produce antibacterial activity against Streptococcus pyogenes EES61 in presence of erythromycin A
Staphylococcus aureus [14] = assay: Tested in vitro for minimum inhibitory concentration to produce antibacterial activity against Staphylococcus aureus A5177
Streptococcus pyogenes [15] = assay: Tested in vitro for minimum inhibitory concentration to produce antibacterial activity against Streptococcus pyogenes PIU 2548 in presence of erythromycin A
Streptococcus pyogenes [16] = assay: Tested in vitro for minimum inhibitory concentration to produce antibacterial activity against Streptococcus pyogenes EES61
Escherichia coli [17] = assay: Tested in vitro for minimum inhibitory concentration to produce antibacterial activity against Escherichia coli SS
Streptococcus equinus [18] = assay: Tested in vitro for minimum inhibitory concentration to produce antibacterial activity against Streptococcus bovis A-5169 in presence of erythromycin A
Staphylococcus aureus [19] = assay: Tested in vitro for minimum inhibitory concentration to produce antibacterial activity against Staphylococcus aureus A-5278
Staphylococcus aureus [20] = assay: Tested in vitro for minimum inhibitory concentration to produce antibacterial activity against Staphylococcus aureus CMX 642A in presence of erythromycin A
[21] = tested on: Staphylococcus epidermidis; assay: Tested in vitro for minimum inhibitory concentration to produce antibacterial activity against Staphylococcus epidermidis 3519
Staphylococcus aureus [22] = assay: Tested in vitro for minimum inhibitory concentration to produce antibacterial activity against Staphylococcus aureus NCTC-10649M in presence of erythromycin A
Staphylococcus aureus [23] = assay: Tested in vitro for minimum inhibitory concentration to produce antibacterial activity against Staphylococcus aureus NCTC-10649M
Enterococcus faecium [24] = assay: Tested in vitro for minimum inhibitory concentration to produce antibacterial activity against Enterococcus faecium ATCC 8043
Staphylococcus aureus [25] = assay: Tested in vitro for minimum inhibitory concentration to produce antibacterial activity against Staphylococcus aureus A5177 in presence of erythromycin A
Streptococcus agalactiae [26] = assay: Tested in vitro for minimum inhibitory concentration to produce antibacterial activity against Streptococcus agalactiae CMX 508
Escherichia coli [27] = assay: Tested in vitro for minimum inhibitory concentration to produce antibacterial activity against Escherichia coli JUHL in presence of erythromycin A
Staphylococcus aureus [28] = assay: Tested in vitro for minimum inhibitory concentration to produce antibacterial activity against Staphylococcus aureus ATCC 6538P in presence of erythromycin A
Staphylococcus aureus [29] = assay: Tested in vitro for minimum inhibitory concentration to produce antibacterial activity against Staphylococcus aureus 1775 in presence of erythromycin A
[30] = tested on: Staphylococcus epidermidis; assay: Tested in vitro for minimum inhibitory concentration to produce antibacterial activity against Staphylococcus epidermidis 3519 in presence of erythromycin A
Streptococcus pyogenes [31] = assay: Tested in vitro for minimum inhibitory concentration to produce antibacterial activity against Streptococcus pyogenes 930
Streptococcus pyogenes [32] = assay: Tested in vitro for minimum inhibitory concentration to produce antibacterial activity against Streptococcus pyogenes 930 in presence of erythromycin A

MIC (Staphylococcus aureus [1]) [µg/mL]	MIC (Staphylococcus aureus [2]) [µg/mL]	MIC (Staphylococcus aureus [3]) [µg/mL]	MIC (Streptococcus agalactiae [4]) [µg/mL]	MIC (Staphylococcus aureus [6]) [µg/mL]	MIC (Staphylococcus aureus [8]) [µg/mL]	MIC (Streptococcus pyogenes [9]) [µg/mL]	MIC (Staphylococcus aureus [10]) [µg/mL]	MIC (Enterococcus faecium [11]) [µg/mL]	MIC (Streptococcus equinus [12]) [µg/mL]	MIC (Streptococcus pyogenes [13]) [µg/mL]	MIC (Staphylococcus aureus [14]) [µg/mL]	MIC (Streptococcus pyogenes [15]) [µg/mL]	MIC (Streptococcus pyogenes [16]) [µg/mL]	MIC (Streptococcus equinus [18]) [µg/mL]	MIC (Staphylococcus aureus [19]) [µg/mL]	MIC (Staphylococcus aureus [20]) [µg/mL]	MIC [21] [µg/mL]	MIC (Staphylococcus aureus [22]) [µg/mL]	MIC (Staphylococcus aureus [23]) [µg/mL]	Compound	other results
> 100	1.56 (≈ 2.13 µM)	1.56 (≈ 2.13 µM)	0.02	50 (≈ 68.4 µM)	1.56 (≈ 2.13 µM)	0.2 (≈ 0.274 µM)	0.39	0.1	0.02 (≈ 0.0274 µM)	0.02	1.56 (≈ 2.13 µM)	6.2	0.05 (≈ 0.0684 µM)	0.02	50 (≈ 68.4 µM)	0.39	1.56 (≈ 2.13 µM)	0.39	1.56 (≈ 2.13 µM)	CC[C@H]1OC(=O)[C@H](C)C[C@H](C)[C@@H](O[C@@H]2O[C@H](C)C[C@H](N(C)C)[C@H]2O)[C@](C)(OC)C[C@@H](C)C(=O)[C@H](C)[C@H]2N(CCCCc3ccccc3)C(=O)O[C@]12C	MIC (Escherichia coli [5]): > 100 µg/mL; MIC (Escherichia coli [7]): 0.39 µg/mL; MIC (Escherichia coli [17]): 1.56 µg/mL (≈ 2.13 µM); MIC (Enterococcus faecium [24]): 0.39 µg/mL (≈ 0.534 µM); MIC (Staphylococcus aureus [25]): 25 µg/mL; MIC (Streptococcus agalactiae [26]): 0.1 µg/mL (≈ 0.137 µM); MIC (Escherichia coli [27]): 100 µg/mL; MIC (Staphylococcus aureus [28]): 0.39 µg/mL; MIC (Staphylococcus aureus [29]): > 100 µg/mL; MIC [30]: 0.39 µg/mL
> 100	0.2 (≈ 0.34 µM)	0.2 (≈ 0.34 µM)	0.05	> 100	0.39 (≈ 0.664 µM)	0.3 (≈ 0.51 µM)	0.2	0.05	0.05 (≈ 0.0851 µM)	0.05	0.2 (≈ 0.34 µM)	3.1	0.1 (≈ 0.17 µM)	0.02	> 100	0.2	0.39 (≈ 0.664 µM)	0.2	0.1 (≈ 0.17 µM)	CC[C@H]1OC(=O)[C@H](C)C(=O)[C@H](C)[C@@H](O[C@@H]2O[C@H](C)C[C@H](N(C)C)[C@H]2O)[C@](C)(OC)C[C@@H](C)C(=O)[C@H](C)[C@@H](O)[C@]1(C)O	MIC (Escherichia coli [5]): > 100 µg/mL; MIC (Streptococcus pyogenes [31]): > 100 µg/mL; MIC (Escherichia coli [7]): 0.2 µg/mL; MIC (Streptococcus pyogenes [32]): > 100 µg/mL; MIC (Escherichia coli [17]): 0.39 µg/mL (≈ 0.664 µM); MIC (Enterococcus faecium [24]): 0.2 µg/mL (≈ 0.34 µM); MIC (Staphylococcus aureus [25]): 1.56 µg/mL; MIC (Streptococcus agalactiae [26]): 0.2 µg/mL (≈ 0.34 µM); MIC (Escherichia coli [27]): 50 µg/mL; MIC (Staphylococcus aureus [28]): 0.2 µg/mL; MIC (Staphylococcus aureus [29]): > 100 µg/mL; MIC [30]: 0.2 µg/mL
> 100	6.2 (≈ 7.8 µM)	12.5 (≈ 15.7 µM)	0.05	25 (≈ 31.4 µM)	12.5 (≈ 15.7 µM)	3.1 (≈ 3.9 µM)	0.39	0.05	1.56 (≈ 1.96 µM)	0.02	6.2 (≈ 7.8 µM)	6.2	1.56 (≈ 1.96 µM)	0.05	25 (≈ 31.4 µM)	0.39	12.5 (≈ 15.7 µM)	0.39	6.2 (≈ 7.8 µM)	CC[C@H]1OC(=O)[C@H](C)C[C@H](C)[C@@H](O[C@@H]2O[C@H](C)C[C@H](N(C)C)[C@H]2O)[C@](C)(OC)C[C@@H](C)C(=O)[C@H](C)[C@H]2N(CCc3ccc(Oc4ccccc4)cc3)C(=O)O[C@]12C	MIC (Streptococcus pyogenes [31]): 6.2 µg/mL (≈ 7.8 µM); MIC (Streptococcus pyogenes [32]): > 100 µg/mL; MIC (Enterococcus faecium [24]): 1.56 µg/mL (≈ 1.96 µM); MIC (Staphylococcus aureus [25]): 12.5 µg/mL; MIC (Streptococcus agalactiae [26]): 1.56 µg/mL (≈ 1.96 µM); MIC (Staphylococcus aureus [28]): 0.39 µg/mL; MIC (Staphylococcus aureus [29]): > 100 µg/mL; MIC [30]: 0.39 µg/mL
> 100	6.2 (≈ 9.94 µM)	6.2 (≈ 9.94 µM)	0.05	> 100	6.2 (≈ 9.94 µM)	0.78 (≈ 1.25 µM)	0.39	0.05	0.39 (≈ 0.625 µM)	0.02	6.2 (≈ 9.94 µM)	6.2	0.39 (≈ 0.625 µM)	0.05	> 100	0.39	12.5 (≈ 20 µM)	0.39	6.2 (≈ 9.94 µM)	CC[C@H]1OC(=O)[C@H](C)C[C@H](C)[C@@H](O[C@@H]2O[C@H](C)C[C@H](N(C)C)[C@H]2O)[C@](C)(OC)C[C@@H](C)C2=NCCN3C(=O)O[C@@]1(C)[C@H]3[C@H]2C	MIC (Streptococcus pyogenes [31]): > 100 µg/mL; MIC (Streptococcus pyogenes [32]): > 100 µg/mL; MIC (Enterococcus faecium [24]): 0.78 µg/mL (≈ 1.25 µM); MIC (Staphylococcus aureus [25]): 12.5 µg/mL; MIC (Streptococcus agalactiae [26]): 0.39 µg/mL (≈ 0.625 µM); MIC (Staphylococcus aureus [28]): 0.39 µg/mL; MIC (Staphylococcus aureus [29]): > 100 µg/mL; MIC [30]: 0.39 µg/mL
